From PubChem BioAssay (NCI)
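Dose response: 5 concentrations. Exposure: 48 h. Format: 96-well plates. Endpoint: linear interpolation; highest concentration if not reached. The concentration for full growth arrest is given as TGI.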

Columns and labels:
Assay in all cases: growth of human tumour cells (NCI), 48 h
A498 renal = tested on: A498 renal
ACHN renal = tested on: ACHN renal
DU-145 prostate = tested on: DU-145 prostate
HOP-92 NSCLC = tested on: HOP-92 NSCLC
HS 578T breast = tested on: HS 578T breast
MCF7 breast = tested on: MCF7 breast
MDA-MB-231 breast = tested on: MDA-MB-231 breast
MOLT-4 leukemia = tested on: MOLT-4 leukemia
RPMI-8226 leukemia = tested on: RPMI-8226 leukemia
SF-539 CNS = tested on: SF-539 CNS
SK-MEL-5 melanoma = tested on: SK-MEL-5 melanoma
SK-OV-3 ovarian = tested on: SK-OV-3 ovarian
SN12C renal = tested on: SN12C renal
SW-620 colon = tested on: SW-620 colon
TK-10 renal = tested on: TK-10 renal
UACC-257 melanoma = tested on: UACC-257 melanoma
UO-31 renal = tested on: UO-31 renal
HT29 colon = tested on: HT29 colon
NCI/ADR-RES ovarian = tested on: NCI/ADR-RES ovarian

Structure (SMILES)	TGI (A498 renal)	TGI (ACHN renal)	TGI (DU-145 prostate)	TGI (HOP-92 NSCLC)	TGI (HS 578T breast)	TGI (MCF7 breast)	TGI (MDA-MB-231 breast)	TGI (MOLT-4 leukemia)	TGI (RPMI-8226 leukemia)	TGI (SF-539 CNS)	TGI (SK-MEL-5 melanoma)	TGI (SK-OV-3 ovarian)	TGI (SN12C renal)	TGI (SW-620 colon)	TGI (TK-10 renal)	TGI (UACC-257 melanoma)	TGI (UO-31 renal)	TGI (HT29 colon)	TGI (NCI/ADR-RES ovarian)
CCN(CC)C(=O)C1=C(C)NC(C)=C(C(=O)N(CC)CC)C1	> 100 µM	> 100 µM	> 100 µM	> 100 µM	> 100 µM	> 100 µM	> 100 µM	> 100 µM	> 100 µM	> 100 µM	> 100 µM	> 100 µM	> 100 µM	> 100 µM	> 100 µM	> 100 µM	> 100 µM	–	–
CCOP(=O)(OCC)/C(=C/c1ccccc1)CC(C)=O	> 100 µM	> 100 µM	> 100 µM	> 100 µM	> 100 µM	> 100 µM	> 100 µM	> 100 µM	–	> 100 µM	> 100 µM	> 100 µM	> 100 µM	> 100 µM	> 100 µM	> 100 µM	> 100 µM	> 100 µM	> 100 µM
O=C(c1ccsc1)c1cc2c(s1)C(=O)c1ccsc1C2=O	2.94 µM	0.241 µM	0.296 µM	1.25 µM	0.549 µM	0.383 µM	0.496 µM	> 100 µM	–	0.138 µM	0.104 µM	3.09 µM	0.125 µM	0.341 µM	1.25 µM	0.324 µM	0.25 µM	4.08 µM	0.407 µM
Oc1c(Cl)ccc2cccnc12	33.1 µM	35.8 µM	> 100 µM	–	> 100 µM	–	> 100 µM	5.76 µM	8.28 µM	34.7 µM	> 100 µM	> 100 µM	88.5 µM	> 100 µM	> 100 µM	84.2 µM	41.1 µM	> 100 µM	3.43 µM
CC(C)N(CCCNc1c2ccccc2nc2cccc([N+](=O)[O-])c12)C(C)C	0.0433 µM	< 0.0301 µM	< 0.01 µM	< 0.01 µM	–	13.2 µM	< 0.01 µM	–	< 0.0192 µM	< 0.0437 µM	< 0.0156 µM	–	–	< 0.0397 µM	–	< 0.0508 µM	–	0.0935 µM	3.68 µM
CCOC(=O)CC/C(C)=N\n1c(Cc2ccc(Cl)cc2)n[nH]c1=O	–	> 100 µM	> 100 µM	–	> 100 µM	> 100 µM	> 100 µM	> 100 µM	> 100 µM	> 100 µM	> 100 µM	–	> 100 µM	> 100 µM	> 100 µM	> 100 µM	> 100 µM	> 100 µM	> 100 µM
N#CC(NC12CC3CC(CC(C3)C1)C2)c1ccccc1 (stereo not given)	–	> 100 µM	> 100 µM	> 100 µM	> 100 µM	> 100 µM	> 100 µM	> 100 µM	> 100 µM	> 100 µM	> 100 µM	> 100 µM	> 100 µM	> 100 µM	> 100 µM	> 100 µM	> 100 µM	> 100 µM	> 100 µM
O=C1OC(C2Cc3cc4c(cc3C2=O)CCC4)c2ccccc21 (stereo not given)	61.6 µM	> 100 µM	> 100 µM	–	> 100 µM	> 100 µM	> 100 µM	64.4 µM	> 100 µM	80.4 µM	> 100 µM	> 100 µM	> 100 µM	> 100 µM	> 100 µM	> 100 µM	> 100 µM	> 100 µM	> 100 µM
CC(=O)Oc1ccn2nc(C)c(Cc3c(C)nn4ccc(OC(C)=O)cc34)c2c1	–	> 100 µM	> 100 µM	> 100 µM	> 100 µM	> 10 µM	> 100 µM	> 100 µM	–	> 100 µM	> 100 µM	–	> 100 µM	> 100 µM	> 100 µM	> 100 µM	–	> 100 µM	> 100 µM
Cc1cc(C)nc(NC(=S)Nc2cccc(Cl)c2)c1	> 100 µM	> 100 µM	> 100 µM	–	> 100 µM	> 58.3 µM	> 100 µM	> 100 µM	> 100 µM	> 100 µM	–	> 100 µM	> 100 µM	> 100 µM	> 100 µM	> 100 µM	> 100 µM	> 100 µM	> 100 µM
O=C(CN1CCOCC1)c1ccc2[nH]c(=O)oc2c1	> 100 µM	> 100 µM	> 100 µM	–	> 100 µM	> 100 µM	> 100 µM	> 100 µM	> 100 µM	> 100 µM	> 100 µM	> 100 µM	> 100 µM	> 100 µM	> 100 µM	> 100 µM	> 100 µM	> 100 µM	> 100 µM
NC(=S)SC1=NNC2(C(=O)N1)c1ccccc1-c1ccccc12	–	> 10 µM	> 10 µM	> 10 µM	> 10 µM	> 10 µM	> 10 µM	–	> 10 µM	> 10 µM	> 10 µM	> 10 µM	> 10 µM	> 10 µM	> 10 µM	> 10 µM	> 10 µM	> 10 µM	> 10 µM
COc1cccc(N=N/C(=N/NC(=O)c2cc(Cl)ccc2O)c2ccc(N(CCC#N)CCC#N)cc2C)c1	> 100 µM	> 100 µM	> 100 µM	–	> 100 µM	79.1 µM	> 100 µM	89.6 µM	> 100 µM	> 100 µM	> 100 µM	> 100 µM	> 100 µM	–	> 100 µM	59.5 µM	> 100 µM	> 100 µM	> 100 µM
CCC(C)[C@H]1C(=O)N=C(N)N1C(=O)OCc1ccccc1 (stereo not given in full)	> 100 µM	> 100 µM	> 100 µM	–	–	> 100 µM	> 100 µM	> 100 µM	> 100 µM	–	> 100 µM	–	> 100 µM	> 100 µM	> 100 µM	> 100 µM	> 100 µM	> 100 µM	> 100 µM
Nc1nc(N)nc(-c2cnc3ccccc3c2)n1	> 100 µM	> 100 µM	> 100 µM	> 100 µM	> 100 µM	> 100 µM	> 100 µM	> 100 µM	–	> 100 µM	–	> 100 µM	> 100 µM	> 100 µM	> 100 µM	> 100 µM	> 100 µM	–	> 100 µM
CC(=O)OC[C@@]12CC[C@H]3C(C)(C)CCC[C@]3(C)[C@H]1C[C@@H](C1=CC(=O)O[C@H]1O)O2	–	5.12 µM	20.4 µM	–	17 µM	11.2 µM	–	6.23 µM	7.27 µM	5.28 µM	9.08 µM	–	12.4 µM	19.9 µM	12 µM	9.26 µM	4.95 µM	7.71 µM	16.1 µM
Cn1c(=O)c2[nH]c(/N=N\n3ccc4ccccc43)nc2n(C)c1=O	> 100 µM	> 100 µM	> 100 µM	–	> 100 µM	–	> 100 µM	> 100 µM	> 100 µM	> 100 µM	> 100 µM	> 100 µM	> 100 µM	> 100 µM	> 100 µM	> 100 µM	> 100 µM	> 100 µM	> 100 µM
Cc1cc2c(cc1Cl)SC(NN(C)C)=NS2(=O)=O	> 10 µM	> 10 µM	> 10 µM	–	> 10 µM	> 10 µM	> 10 µM	> 10 µM	> 10 µM	> 10 µM	> 10 µM	> 10 µM	> 10 µM	> 10 µM	> 10 µM	> 10 µM	–	> 10 µM	> 10 µM
Nc1cc(OCc2ccccc2)c(OCc2ccccc2)cc1C=O	44.2 µM	93.5 µM	> 100 µM	–	> 100 µM	> 100 µM	> 100 µM	> 100 µM	> 100 µM	31.7 µM	93.1 µM	> 100 µM	> 100 µM	> 100 µM	67.8 µM	> 100 µM	–	> 100 µM	> 100 µM
OCC1C(O)C(O)[C@@H]2SCCN12 (stereo not given in full)	> 100 µM	> 100 µM	> 100 µM	> 100 µM	> 100 µM	–	> 100 µM	> 100 µM	> 100 µM	–	> 100 µM	> 100 µM	–	> 100 µM	> 100 µM	> 100 µM	> 100 µM	> 100 µM	> 100 µM
C/C(=N\N=C(\N)OB(F)F)c1ccccn1	> 100 µM	> 100 µM	> 100 µM	85.7 µM	> 100 µM	> 100 µM	> 100 µM	–	–	> 100 µM	> 100 µM	–	> 100 µM	> 100 µM	> 100 µM	> 100 µM	> 100 µM	> 100 µM	> 100 µM
NNC(=O)CC(=O)Nc1ccc(C(=O)O)cc1	–	> 100 µM	> 100 µM	> 100 µM	> 100 µM	> 100 µM	> 100 µM	> 100 µM	> 100 µM	> 100 µM	> 100 µM	> 100 µM	> 100 µM	> 100 µM	> 100 µM	> 100 µM	> 100 µM	> 100 µM	> 100 µM
CCN(CC)CCC(=O)c1ccc(Oc2ccc(C)cc2)cc1	–	38.1 µM	95.3 µM	39.3 µM	44.6 µM	32.9 µM	31 µM	60.7 µM	65.9 µM	33.1 µM	–	88.7 µM	30.4 µM	33.8 µM	32.5 µM	34.4 µM	–	35.6 µM	51.2 µM
CC(=O)NC(ON1C(=O)COc2ccccc21)C(Cl)(Cl)Cl (stereo not given)	–	> 100 µM	–	> 100 µM	–	–	–	> 100 µM	> 100 µM	> 100 µM	–	> 100 µM	> 100 µM	> 100 µM	> 100 µM	> 100 µM	> 100 µM	> 100 µM	–
NS(=O)(=O)c1cc(S(N)(=O)=O)c(NC(=O)Nc2ccc(Cl)c(Cl)c2)c(Cl)c1Cl	–	> 100 µM	–	> 100 µM	> 100 µM	> 100 µM	> 100 µM	> 100 µM	> 100 µM	–	> 100 µM	> 100 µM	> 100 µM	> 100 µM	> 100 µM	> 100 µM	> 100 µM	> 100 µM	> 100 µM
NC(N)=NS(=O)(=O)c1ccc(Nc2c3ccccc3nc3ccc(C(=O)Nc4ccc(S(N)(=O)=O)cc4)cc23)cc1	–	> 100 µM	> 100 µM	> 100 µM	> 100 µM	> 100 µM	> 100 µM	> 100 µM	> 100 µM	> 100 µM	> 100 µM	> 100 µM	> 100 µM	> 100 µM	> 100 µM	> 100 µM	> 100 µM	> 100 µM	> 100 µM
Nn1c(-c2ccccc2Nc2ccccc2-c2n[nH]c(=S)n2N)n[nH]c1=S	–	> 50 µM	> 50 µM	> 50 µM	–	> 50 µM	–	> 50 µM	> 50 µM	> 50 µM	> 50 µM	–	–	> 50 µM	> 50 µM	> 50 µM	> 50 µM	> 50 µM	> 50 µM
Nc1ccc(S(=O)(=O)Nc2nc3ccccc3nc2Nc2ccc(S(N)(=O)=O)cc2)cc1	–	> 100 µM	> 100 µM	> 100 µM	> 100 µM	> 100 µM	> 100 µM	93.3 µM	> 100 µM	> 100 µM	> 100 µM	> 100 µM	> 100 µM	> 100 µM	> 100 µM	> 100 µM	56.2 µM	> 100 µM	> 100 µM
